From US12077503B2, “Substituted cyclic amides and their use as herbicides” (FMC CORPORATION, priority 2015, dated 2024)

Tests used:
Assay type in all cases: in vivo
[1] = tested on: wheat (Triticum aestivum); assay: Test A postemergence
In short: (§1)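 Preemergence directed soil spray on seeded pots, or postemergence application to plants 2–10 cm, one- to two-leaf. Solvent mixture non-phytotoxic, with surfactant. Scored ~10 d later, visually, 0–100 vs untreated.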

[2] = tested on: corn (Zea mays); assay: Test A postemergence
In short: as §1

[3] = tested on: morningglory (Ipomoea spp.); assay: Test A postemergence
In short: as §1

[4] = tested on: giant foxtail (Setaria faberii); assay: Test A postemergence
In short: as §1

[5] = tested on: barnyardgrass (Echinochloa crus-galli); assay: Test A postemergence
In short: as §1

[6] = tested on: pigweed (Amaranthus retroflexus); assay: Test A postemergence
In short: as §1

[7] = tested on: crabgrass, large (Digitaria sanguinalis); assay: Test A postemergence
In short: as §1

[8] = tested on: velvetleaf (Abutilon theophrasti); assay: Test A postemergence
In short: as §1

[9] = tested on: sedge, umbrella (small-flower umbrella sedge, Cyperus difformis); assay: Test B flooded paddy test; details: Flood, 250 g ai/ha; for Sedge, Umbrella plant response rating: scale of 0 to 100 where 0 is no effect and 100 is complete control
In short: (§2)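 Greenhouse paddy pots with 2-leaf stage plants received compound by direct addition to floodwater 3 cm deep, kept at that level. Scored visually at 13–15 d versus controls (0 no effect; 100 complete control).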

[10] = tested on: ducksalad (Heteranthera limosa); assay: Test B flooded paddy test; details: Flood, 250 g ai/ha; 0 to 100 scale where 0 is no effect and 100 is complete control; 13 to 15 d
In short: as §2

[11] = tested on: rice (Oryra sativa); assay: Test B flooded paddy test; details: Flood, 250 g ai/ha; 0 to 100 scale where 0 is no effect and 100 is complete control; 13 to 15 d
In short: as §2

[12] = tested on: barnyardgrass (Echinochloa crus-galli); assay: Test B flooded paddy test; details: Flood, 250 g ai/ha; 0 to 100 scale where 0 is no effect and 100 is complete control; 13 to 15 d
In short: as §2

[13] = tested on: wheat (Triticum aestivum); assay: Test A preemergence; details: for Plant response rating, Wheat: preemergence
In short: as §1

[14] = tested on: corn (Zea mays); assay: Test A preemergence; details: for Plant response rating, Corn: preemergence
In short: as §1

[15] = tested on: morningglory (Ipomoea spp.); assay: Test A preemergence; details: for Plant response rating, Morningglory: preemergence
In short: as §1

[16] = tested on: giant foxtail (Setaria faberii); assay: Test A preemergence; details: for Plant response rating, Foxtail, Giant: preemergence
In short: as §1

[17] = tested on: barnyardgrass (Echinochloa crus-galli); assay: Test A preemergence; details: for Plant response rating, Barnyardgrass: preemergence
In short: as §1

[18] = tested on: pigweed (Amaranthus retroflexus); assay: Test A preemergence; details: for Plant response rating, Pigweed: preemergence
[19] = tested on: crabgrass, large (Digitaria sanguinalis); assay: Test A preemergence; details: for Plant response rating, Crabgrass, Large: preemergence
In short: as §1

[20] = tested on: velvetleaf (Abutilon theophrasti); assay: Test A preemergence; details: for Plant response rating, Velvetleaf: preemergence
In short: as §1

[21] = 500 g ai/ha, postemergence, 0 to 100 scale, 0 no effect, 100 complete control
[22] = Postemergence, 125 g ai/ha, visual injury, 0 to 100 scale (0 no effect, 100 complete control), approx. 10 d
[23] = 125 g ai/ha, 0 to 100 scale (0 no effect, 100 complete control)
[24] = Preemergence, 500 g ai/ha, 0 is no effect, 100 is complete control
[25] = 125 g ai/ha, postemergence, visual injury after approximately 10 d, 0 to 100 scale (0 no effect, 100 complete control)
[26] = 500 g ai/ha, postemergence, visual injury, 0 to 100 scale (0 no effect, 100 complete control), approx. 10 d
[27] = 125 g ai/ha, visual rating after approx. 10 d, 0 to 100 scale where 0 is no effect and 100 is complete control
[28] = 500 g ai/ha, 0 to 100 scale, 0 = no effect, 100 = complete control

CN(C)c1cccc(C2CNC(=O)C2C(=O)Nc2ccccc2F)c1 (stereo not drawn) [Compound 360]
Plant response rating, Wheat [1, 21]: 0 | Plant response rating, Wheat [1, 22]: 0 | Plant response rating, Corn [2, 21]: 0 | Plant response rating, Corn [2, 22]: 0 | Plant response rating, Morningglory [3, 21]: 0 | Plant response rating, Morningglory [3, 22]: 0 | Plant response rating, Foxtail, Giant [4, 21]: 0 | Plant response rating, Foxtail, Giant [4, 22]: 0 | Plant response rating, Barnyardgrass [5, 21]: 0 | Plant response rating, Barnyardgrass [5, 22]: 0 | Plant response rating, Pigweed [6, 21]: 0 | Plant response rating, Pigweed [6, 22]: 0 | Plant response rating, Crabgrass, Large [7, 21]: 0 | Plant response rating, Crabgrass, Large [7, 22]: 0 | Plant response rating, Velvetleaf [8, 21]: 0 | Plant response rating, Velvetleaf [8, 22]: 0 | Plant response rating, Sedge, Umbrella ([9]; 0 to 100 scale where 0 is no effect and 100 is complete control, 13 to 15 d): 0 | Plant response rating, Ducksalad [10]: 0 | Plant response rating, Rice [11]: 0 | Plant response rating, Barnyardgrass [12]: 0 | Plant response rating, Wheat [13, 23]: 0 | Wheat plant response rating (0 to 100 scale) [13, 24]: 0 | Plant response rating, Corn [14, 23]: 0 | Corn plant response rating (0 to 100 scale) [14, 24]: 0 | Plant response rating, Morningglory [15, 23]: 0 | Morningglory plant response rating (0 to 100 scale) [15, 24]: 0 | Plant response rating, Foxtail, Giant [16, 23]: 0 | Foxtail, Giant plant response rating (0 to 100 scale) [16, 24]: 0 | Plant response rating, Barnyardgrass [17, 23]: 0 | Barnyardgrass plant response rating (0 to 100 scale) [17, 24]: 0 | Plant response rating, Pigweed [18, 23]: 0 | Pigweed plant response rating (0 to 100 scale) [18, 24]: 0 | Plant response rating, Crabgrass, Large [19, 23]: 0 | Crabgrass, Large plant response rating (0 to 100 scale) [19, 24]: 0 | Plant response rating, Velvetleaf [20, 23]: 0 | Velvetleaf plant response rating (0 to 100 scale) [20, 24]: 0

O=C1NCC(c2cccc(O)c2)C1C(=O)Nc1cccc(F)c1F (racemic) [Compound 715]
Plant response rating, Wheat [1, 25]: 0 | Plant response rating, Wheat [1, 26]: 0 | Plant response rating, Corn [2, 25]: 0 | Plant response rating, Corn [2, 26]: 0 | Plant response rating, Morningglory [3, 25]: 0 | Plant response rating, Morningglory [3, 26]: 0 | Plant response rating, Foxtail, Giant [4, 25]: 0 | Plant response rating, Foxtail, Giant [4, 26]: 0 | Plant response rating, Barnyardgrass [5, 25]: 0 | Plant response rating, Barnyardgrass [5, 26]: 0 | Plant response rating, Pigweed [6, 25]: 0 | Plant response rating, Pigweed [6, 26]: 0 | Plant response rating, Crabgrass, Large [7, 25]: 0 | Plant response rating, Crabgrass, Large [7, 26]: 0 | Plant response rating, Velvetleaf [8, 25]: 0 | Plant response rating, Velvetleaf [8, 26]: 0 | Sedge, Umbrella plant response rating [9]: 0 | Plant response rating, Ducksalad [10]: 0 | Plant response rating, Rice [11]: 0 | Plant response rating, Barnyardgrass [12]: 0 | Plant response rating, Wheat [13, 27]: 0 | Plant response rating, Wheat [13, 28]: 0 | Plant response rating, Corn [14, 27]: 0 | Plant response rating, Corn [14, 28]: 0 | Plant response rating, Morningglory [15, 27]: 0 | Plant response rating, Morningglory [15, 28]: 0 | Plant response rating, Foxtail, Giant [16, 27]: 0 | Plant response rating, Foxtail, Giant [16, 28]: 0 | Plant response rating, Barnyardgrass [17, 27]: 0 | Plant response rating, Barnyardgrass [17, 28]: 0 | Plant response rating, Pigweed [18, 27]: 0 | Plant response rating, Pigweed [18, 28]: 0 | Plant response rating, Crabgrass, Large [19, 27]: 0 | Plant response rating, Crabgrass, Large [19, 28]: 0 | Plant response rating, Velvetleaf [20, 27]: 0 | Plant response rating, Velvetleaf [20, 28]: 0

O=C1NCC(c2cccc(O)c2)C1C(=O)Nc1ccccc1F (racemic) [Compound 714]
Plant response rating, Wheat [1, 25]: 0 | Plant response rating, Wheat [1, 26]: 0 | Plant response rating, Corn [2, 25]: 0 | Plant response rating, Corn [2, 26]: 0 | Plant response rating, Morningglory [3, 25]: 0 | Plant response rating, Morningglory [3, 26]: 0 | Plant response rating, Foxtail, Giant [4, 25]: 0 | Plant response rating, Foxtail, Giant [4, 26]: 0 | Plant response rating, Barnyardgrass [5, 25]: 0 | Plant response rating, Barnyardgrass [5, 26]: 0 | Plant response rating, Pigweed [6, 25]: 0 | Plant response rating, Pigweed [6, 26]: 0 | Plant response rating, Crabgrass, Large [7, 25]: 0 | Plant response rating, Crabgrass, Large [7, 26]: 0 | Plant response rating, Velvetleaf [8, 25]: 0 | Plant response rating, Velvetleaf [8, 26]: 0 | Sedge, Umbrella plant response rating [9]: 0 | Plant response rating, Ducksalad [10]: 0 | Plant response rating, Rice [11]: 0 | Plant response rating, Barnyardgrass [12]: 0 | Plant response rating, Wheat [13, 27]: 0 | Plant response rating, Wheat [13, 28]: 0 | Plant response rating, Corn [14, 27]: 0 | Plant response rating, Corn [14, 28]: 0 | Plant response rating, Morningglory [15, 27]: 0 | Plant response rating, Morningglory [15, 28]: 0 | Plant response rating, Foxtail, Giant [16, 27]: 0 | Plant response rating, Foxtail, Giant [16, 28]: 20 | Plant response rating, Barnyardgrass [17, 27]: 0 | Plant response rating, Barnyardgrass [17, 28]: 0 | Plant response rating, Pigweed [18, 27]: 0 | Plant response rating, Pigweed [18, 28]: 0 | Plant response rating, Crabgrass, Large [19, 27]: 20 | Plant response rating, Crabgrass, Large [19, 28]: 30 | Plant response rating, Velvetleaf [20, 27]: 0 | Plant response rating, Velvetleaf [20, 28]: 0
